# Experimental data published in patent publication US12410448B2, “Nanoparticle compositions containing sugar functionalized nucleic acid carriers” (TIBA Biotech LLC, priority 2021, dated 2025).
# What was measured:
# SARS-CoV-2 Spike protein = test: COVID-19 Spike trimer direct serum ELISA after vaccination; format: in vivo
# SEAP expression = test: In vivo SEAP production, deoxy sugar dendrons; set-up: species or system mice; conditions: FIG. 4 legend; SEAP mRNA nanoparticles
# Procedure: To test formulations of different monosaccharides based dendrons, the secreted embryonic alkaline phosphatase SEAP reporter system was used. For in vivo tests, mice were injected with nanoparticles at a dose of 5 ug of SEAP mRNA, and 16 hrs later, serum was collected from the mice. The amount of […] using the Invitrogen NovaBright™ Phospha-Light™ EXP Assay kits for SEAP detection according to the manufacturer's protocol. The amount of SEAP in the mouse serum samples are reported in Arbitrary Units (A.U.) as measured in a BioTek Synergy HTX microplate reader. Error bars are±S.E.M. Referring to FIG. 4b, it was observed that the SEAP amount was higher with the PE Dendron_G2-1 deoxyGlucose-A1-Ricinoleic than the other regioisomers: PE Dendron_G2-2 deoxyGlucose-A1-Ricinoleic and PE Dendron_G2-6 deoxyGlucose-A1-Ricinoleic. Referring to FIG. 5b, it was also observed that the SEAP amount was higher with the PE Dendron_G2-2 deoxyGlucose-A5-Ricinoleic than PE Dendron_G2-2 deoxyGlucose-A1-Ricinoleic indicating pKa of the ionizable delivery molecules influences the ability of the nanoparticles to deliver functionally active RNA.
# [1] = Hydrodynamic size measurement by dynamic light scattering (DLS); format: physicochemical; conditions: nanoparticle composition with SEAP mRNA
# [2] = Encapsulation efficiency by Ribogreen assay; format: physicochemical; conditions: nanoparticle composition with SEAP mRNA, formulated at pH 5; dendron:DOPE:cholesterol:DMG-PEG2k 1:0.6:2.88:0.1
# Description: As used herein, “encapsulated” can refer to a nanoparticle that provides an active agent or therapeutic agent with full encapsulation, partial encapsulation, or both. In an embodiment, the therapeutic agent is a nucleic acid (as a non-limiting example, a messenger RNA), In a preferred embodiment, the nucleic acid is fully encapsulated in the nanoparticle. In the context of nucleic acid therapeutic agents, full encapsulation may be determined by a Ribogreen® assay. RiboGreen® is an ultra-sensitive fluorescent nucleic acid stain for quantitating oligonucleotides and single-stranded DNA or RNA in solution (available from Thermo Fisher Scientific-US).
# Nanoparticles containing the deoxy sugar-modified polyesteramine dendron (e.g PE Dendron_G2-2 deoxyGlucose-A1-Ricinoleic):DOPE:cholesterol:DMG-PEG2k at molar ratios of 1:0.6:2.88:0.1 were formulated using NanoAssembir Benchtop (Precision NanoSystems Inc, Vancouver, BC, Canada)). RNA was diluted with DNase/RNase-Free, endotoxin free distilled water and sterile citrate buffer to a final desired pH. […] Encapsulation efficiency was measured to be 95% for the nanoparticle composition containing PE Dendron_G2-2 deoxyGlucose-A1-Ricinoleic and SEAP mRNA (formulated at pH 5) using Ribogreen® assay (Geall et al. 10.1073/pnas.1209367109 which is incorporated herein by reference as if fully set forth). […]
# BHK cells = test: In vitro SEAP production; format: cell-based
# Procedure: To test the ability of the nanoparticles formulated with different deoxy sugar based dendrons to express SEAP in vitro, BHK cells were treated with nanoparticles. Each well of a 12 well dish of BHKs was treated with 20 μL (approximately 1 μg) of each formulation product diluted into a final volume of 500 μL with a 1:1 Optimem:PBS mix. The nontreated wells had 500 μL of 50/50 PBS/OptiMEM. Twenty four hours post-treatment or transfection, conditioned media from each culture was collected. The amount of SEAP was quantified using the Invitrogen NovaBright™ Phospha-Light™ EXP Assay kits for SEAP detection according to the manufacturer's protocol. The amount of SEAP in the media samples are reported in Arbitrary Units (A.U.) as measured in a BioTek Synergy HTX microplate reader. Error bars are ±S.E.M. Referring to FIG. 4a, it was observed that the SEAP amount was higher with the PE Dendron_G2-2 deoxyGlucose-A1-Ricinoleic than the other regioisomers: PE Dendron_G2-1 deoxyGlucose-A1-Ricinoleic and PE Dendron_G2-6 deoxyGlucose-A1-Ricinoleic. […]
compound,measurement,setting,value
CCCCCC[C@H](O)C/C=C\CCCCCCCC(=O)NCCCN(C)CCCNC(=O)OCC(C)(COC(=O)NCCCN(C)CCCNC(=O)CCCCCCC/C=C\C[C@@H](O)CCCCCC)C(=O)OCC(C)(COC(=O)C(C)(COC(=O)NCCCN(C)CCCNC(=O)CCCCCCC/C=C\C[C@@H](O)CCCCCC)COC(=O)NCCCN(C)CCCNC(=O)CCCCCCC/C=C\C[C@@H](O)CCCCCC)C(=O)OCc1cn([C@H]2C(O)O[C@H](CO)[C@@H](O)[C@@H]2O)nn1 (some centres unmarked),Immunogenicity upon IM administration (anti-Spike IgG titer),SARS-CoV-2 Spike protein; compared with Dlin-MC3-DMA control,superior
same,Endpoint dilution titer of serum anti-Spike IgG,SARS-CoV-2 Spike protein; compared with PE Dendron_G2-2 deoxyGlucose-A5-Ricinoleic,higher
same,SEAP protein production in vivo,SEAP expression,resulted in SEAP protein production
same,"Nanoparticle size at strongest intensity (Z average, DLS)",[1],113.3 nm·days
same,Polydispersity index of size distribution,[1]; single peak,low
same,Encapsulation efficiency,[2],95%
same,SEAP amount in conditioned media,"BHK cells; FIG. 4a, BHK cells, 24 h, about 1 μg, compared with regioisomers 1 deoxyGlucose-A1 and 6 deoxyGlucose-A1",higher
same,SEAP protein production in vitro,"BHK cells; FIG. 4 legend, SEAP mRNA nanoparticles",resulted in SEAP protein production
